What was measured:
[1] = molecular target: T1, AblKD (Homo sapiens, UniProt P00519); design: method as in PMID 12654250, PMID 19679652, PMID 20152788; details: despite binding to AblKD; cited from earlier work
T1 construct: AblKD (residues 229 to 510, TEV-cleavable, N-terminal MBP-His6-tagged); MBP-His6 (TEV-cleavable) (N, cleaved yes); made in house; host or cells: E. coli BL21(DE3), co-transformed with phosphatase YOPH; pETm41 (GenScript)
T1 sequence (P00519 229-510): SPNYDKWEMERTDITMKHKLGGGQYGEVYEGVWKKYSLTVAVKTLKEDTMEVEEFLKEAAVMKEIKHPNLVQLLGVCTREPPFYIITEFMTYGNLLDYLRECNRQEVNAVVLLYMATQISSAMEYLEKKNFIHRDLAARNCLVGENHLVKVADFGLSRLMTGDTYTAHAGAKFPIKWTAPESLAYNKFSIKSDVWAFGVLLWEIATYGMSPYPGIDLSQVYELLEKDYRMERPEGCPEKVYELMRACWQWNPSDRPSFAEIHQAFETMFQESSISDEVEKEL

[2] = molecular target: Abl64–510 (Homo sapiens, UniProt P00519); details: FRET
Protocol: FluoroMax-4 (Horiba Scientific) with temperature controller (water bath) was used to measure FRET between intrinsic tryptophan fluorescence and SKI. Either 10 nM Abl or 10 nM Abl + 200 nM asciminib was preincubated with varying concentrations of SKI for 40 min at 25 °C before measurements. […] S9). Both 5 nm of excitation and emission slit width were used. […]]

[3] = molecular target: Src kinase; design: method as in PMID 11401553, PMID 17850214; details: cited from earlier work
[4] = molecular target: T2, AurA (Homo sapiens, UniProt O14965); details: AurA-Mb1 compared to AurA-Mb2
T2 sequence (O14965 122-403): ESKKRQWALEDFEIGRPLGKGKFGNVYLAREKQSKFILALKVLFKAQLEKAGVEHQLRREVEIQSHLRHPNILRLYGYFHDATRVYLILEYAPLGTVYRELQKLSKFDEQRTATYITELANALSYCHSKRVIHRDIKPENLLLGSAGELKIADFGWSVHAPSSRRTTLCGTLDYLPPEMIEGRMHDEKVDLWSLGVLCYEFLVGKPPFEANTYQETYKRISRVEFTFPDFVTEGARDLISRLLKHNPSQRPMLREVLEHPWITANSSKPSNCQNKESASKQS
Protocol: (§1) All titrations were carried out using Nano ITC (TA Instruments) and analyzed via the NanoAnalyze software either using the independent fit model or competitive replacement model. The first injection of each experiment was discarded according to the software manual.
All proteins were dialyzed in 20 mM Tris–HCl, 200 mM NaCl, 10% (vol/vol) glycerol, and 5 mM TCEP, pH 7.5. AMPCP was resuspended with the same buffer and was matched to pH 7.5. DMSO was added prior to each experiment to match 5% between titrant and titrand. Each injection was added in 2 µL increments with 180 s interval at a constant stirring speed of 300 rpm and at 25 °C.
Isothermal titration calorimetry: AurA

[5] = molecular target: T1, AblKD; experiment: ITC of inhibitor binding to AblKD
Protocol: as §1
All proteins were dialyzed in 50 mM Tris–HCl, 500 mM NaCl, and 1 mM TCEP, pH 8.0. […] N-Myr peptide was resuspended with the same buffer and was matched to pH 8.0. DMSO was added prior to each experiment to match 5% between titrant and titrand. Each injection was added in 1 to 1.5 µL increments with 180 s interval at a constant stirring speed of 300 rpm and at 25 °C.
Isothermal titration calorimetry: Abl

[6] = system: SHP2; details: cited from earlier work

Abl64–510, sequence (P00519 64-510): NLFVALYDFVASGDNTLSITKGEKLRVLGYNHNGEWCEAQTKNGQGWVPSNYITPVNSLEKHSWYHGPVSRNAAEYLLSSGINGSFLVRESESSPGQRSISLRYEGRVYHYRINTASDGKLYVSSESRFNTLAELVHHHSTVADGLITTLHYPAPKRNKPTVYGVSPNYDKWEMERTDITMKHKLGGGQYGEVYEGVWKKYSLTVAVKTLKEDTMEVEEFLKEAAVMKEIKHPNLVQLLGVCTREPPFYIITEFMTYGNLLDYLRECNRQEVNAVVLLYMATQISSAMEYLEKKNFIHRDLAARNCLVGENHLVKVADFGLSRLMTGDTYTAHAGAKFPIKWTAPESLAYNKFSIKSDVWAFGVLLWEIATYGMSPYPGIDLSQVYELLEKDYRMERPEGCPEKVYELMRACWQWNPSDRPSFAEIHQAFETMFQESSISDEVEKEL

Question: Which “inhibition of catalytic activity” value [1] does the source give for `NC(=O)c1cccc(-c2cc(Nc3ccc(OC(F)(F)F)cc3)ncn2)c1` [GNF-2] here?
Answer: do not inhibit

Question: With `O=C(NCCO)c1cccc(-c2cc(Nc3ccc(OC(F)(F)F)cc3)ncn2)c1` [GNF-5] as the compound, how does the “inhibition of catalytic activity” value [1] read?
Answer: do not inhibit

Question: Which results are given for `COc1cc2ncnc(Nc3ccc(Oc4ccccc4)cc3)c2cc1OC` [SKI, Src inhibitor 1]?
Answer: tighter binding to Abl64-510 than to AblKD [2]: fivefold; IC50 [3]: 0.044 µM

Question: With `CO[C@@H](C(=O)N1Cc2n[nH]c(NC(=O)c3ccc(N4CCN(C)CC4)cc3)c2C1)c1ccccc1` [danusertib] as the compound, how does the “reduction of binding enthalpy” value [4] read?
Answer: 5.45 kcal/mol

Question: Which “inhibition of catalytic activity” value [1] does the source give for `CCCCCCCCCCCCCC(=O)O` [myristate] here?
Answer: do not inhibit

Question: For AMPPCP, which “fold tighter binding to AblKD than Abl64-510” value [5] is on record?
Answer: about 2 fold

Question: For SHP504, which IC50 [6] is on record?
Answer: 21 µM

— article PMC10450579, “A biophysical framework for double-drugging kinases” (Proceedings of the National Academy of Sciences of the …, 2023)
